Holding throughout (assay type): functional
Test [1] relates to Trypanosoma cruzi. Kind of test: In vitro percent inhibition of growth against epimastigote form of Trypanosoma cruzi (Tulahuen strain) at 25 uM.
The subject of test [2] is Trypanosoma cruzi. Nature of the test: In vitro inhibitory dose against epimastigote form of Trypanosoma cruzi Tulahuen strain. The settings on record: read-out: ID50 (the source's name).
The subject of test [3] is Trypanosoma cruzi. Nature of the test: In vitro inhibitory dose against epimastigote form of Trypanosoma cruzi Brener strain. Particulars: read-out: ID50 (the source's name).
In test [4] the target is T1, Glutathione reductase, mitochondrial (Homo sapiens) (UniProt P00390).
T1 sequence (whole entry): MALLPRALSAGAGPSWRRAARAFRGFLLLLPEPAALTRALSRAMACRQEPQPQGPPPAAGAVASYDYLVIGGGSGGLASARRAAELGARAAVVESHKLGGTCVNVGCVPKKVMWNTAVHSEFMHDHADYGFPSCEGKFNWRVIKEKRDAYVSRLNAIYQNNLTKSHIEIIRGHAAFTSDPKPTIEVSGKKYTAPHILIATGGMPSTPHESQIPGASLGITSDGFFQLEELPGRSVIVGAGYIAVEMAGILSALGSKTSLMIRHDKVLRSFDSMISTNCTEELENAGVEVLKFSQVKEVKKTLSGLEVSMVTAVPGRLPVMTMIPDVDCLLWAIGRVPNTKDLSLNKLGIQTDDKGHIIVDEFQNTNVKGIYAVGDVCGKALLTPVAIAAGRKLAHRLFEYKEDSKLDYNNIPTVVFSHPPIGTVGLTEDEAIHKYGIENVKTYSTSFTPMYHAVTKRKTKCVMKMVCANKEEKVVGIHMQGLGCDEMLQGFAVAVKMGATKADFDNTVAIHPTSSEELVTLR
Nature of the test: In vitro inhibition against human glutathione reductase; IA denotes inactive.

Active and inactive are the calls of the source. The rule behind the calls is not given here.

`Nc1nc(N)c2nc3ccccc3nc2n1`: the PGI with Trypanosoma cruzi [1] was determined as 0%.
With `Cc1cc2c(cc1C)[n+]([O-])c1cc(NCCCN(C)C)c(C#N)cc1[n+]2[O-]`, in the test with Trypanosoma cruzi [1], the PGI was 1%.
Same read-out and setting: as for `c1ccc(CNc2nc(NCc3ccccc3)c3nc4ccccc4nc3n2)cc1`, the figure is 31%.
On the same count and under the same terms, with `COc1ccc2c(c1)[n+]([O-])c1cc(C#N)c(N3CCN(c4ccc([N+](=O)[O-])cc4)CC3)cc1[n+]2[O-]` the figure was 19%.
With `Cc1cc2c(cc1C(=O)c1ccccc1)[n+]([O-])c1cc(Cl)c(Cl)cc1[n+]2[O-]`, the IC50 in the test with Trypanosoma cruzi [2] was 11.8 µM; with Trypanosoma cruzi [3], 12.5 µM. The compound further displayed a PGI with Trypanosoma cruzi [1] of 91%.
In turn, `N#Cc1cc2c(cc1N)[n+]([O-])c1cc(Cl)c(Cl)cc1[n+]2[O-]` registered a PGI in the test with Trypanosoma cruzi [1] of 25%.
In the case of `CC(=O)c1cc2c(cc1C)[n+]([O-])c1cc(F)ccc1[n+]2[O-]`, in the test on Trypanosoma cruzi [1], the PGI is on record as 22%.
Turning to `N#Cc1cc2c(cc1N1CCN(c3cccc(C(F)(F)F)c3)CC1)[n+]([O-])c1ccc(Cl)cc1[n+]2[O-]`, the IC50 in the test with Trypanosoma cruzi [2] is 6.7 µM; in the test with Trypanosoma cruzi [3] it was 7 µM. In the test on Trypanosoma cruzi [1], this compound gave a PGI of 94%.
As to `Cc1ccc2nc3cc(N)c(C#N)cc3nc2c1`, the PGI in the test with Trypanosoma cruzi [1] stood at 0%.
`Cc1cc2c(cc1C)[n+]([O-])c1cc(C(=O)N3CCN(c4ccccc4)CC3)c(C)cc1[n+]2[O-]` came in with a PGI with Trypanosoma cruzi [1] of 0%.
Regarding `Cc1cc2nc3cc(Cl)c(C#N)cc3nc2cc1C`, the IC50 in the test on Trypanosoma cruzi [2] came out at 19.6 µM; with Trypanosoma cruzi [3], 3 µM. This compound returned a PGI in the test with Trypanosoma cruzi [1] of 81%.
Turning to `COc1ccc2c(c1)[n+]([O-])c1cc(C#N)c(N)cc1[n+]2[O-]`, the PGI with Trypanosoma cruzi [1] was 25%.
As for `N#Cc1cc2nc3cc(Cl)ccc3nc2cc1Cl`, the IC50 turned out to be 4.5 µM in the test with Trypanosoma cruzi [2] and 3 µM with Trypanosoma cruzi [3]. The compound also registered a PGI with Trypanosoma cruzi [1] of 100%.
Take `N#Cc1cc2c(cc1N1CCN(Cc3ccc4c(c3)OCO4)CC1)[n+]([O-])c1ccc(Cl)cc1[n+]2[O-]`: in the test on Trypanosoma cruzi [1], the PGI turned out to be 33%.
Compound `COCCNC(=O)N/N=C/c1ccc2c(c1)[n+]([O-])c1cc(C#N)c(N)cc1[n+]2[O-]` showed a PGI in the test on Trypanosoma cruzi [1] of 20%.
For the compound `CCN(CC)CCCC(C)Nc1c2ccc(Cl)cc2nc2ccc(OC)cc12` (stereo not drawn), in test [4], the inhibition result was “inactive”.
The compound `N#Cc1cc2c(cc1N1CCN(c3ccc([N+](=O)[O-])cc3)CC1)[n+]([O-])c1ccc(Cl)cc1[n+]2[O-]` came in with a PGI with Trypanosoma cruzi [1] of 3%.
On the same count and under the same terms, as for `N#Cc1cc2c(cc1Nc1ccccc1)[n+]([O-])c1ccc(Cl)cc1[n+]2[O-]`, the figure is 63%.
Regarding `COc1ccccc1N1CCN(c2cc3c(cc2C#N)[n+]([O-])c2cc(Cl)ccc2[n+]3[O-])CC1`, the IC50 was determined as 6.5 µM in the test with Trypanosoma cruzi [2] and 9.5 µM in the test with Trypanosoma cruzi [3]. Further, the PGI in the test on Trypanosoma cruzi [1] is reported as 100%.
As for `Cc1cc2c(cc1C)[n+]([O-])c1cc(C(=O)N3CCN(c4ccc([N+](=O)[O-])cc4)CC3)c(C)cc1[n+]2[O-]`, the PGI in the test with Trypanosoma cruzi [1] is given as 1%.
In the test on Trypanosoma cruzi [1], `N#Cc1cc2c(cc1N)[n+]([O-])c1ccc(/C=N/NC(=O)NCCc3ccccc3)cc1[n+]2[O-]` showed a PGI of 11%.
`COC(=O)N/N=C/c1ccc2c(c1)[n+]([O-])c1cc(C)c(C)cc1[n+]2[O-]` registered a PGI in the test with Trypanosoma cruzi [1] of 28%.
Compound `COc1ccc2[nH]c3nnc(N)c-3nc2c1` registered a PGI in the test on Trypanosoma cruzi [1] of 0%.
In the test with Trypanosoma cruzi [1], `Cc1cc2c(cc1C(=O)N1CCN(c3ccccc3)CC1)[n+]([O-])c1cc(Cl)c(Cl)cc1[n+]2[O-]` yielded a PGI of 47%.
For `CC1CS(=O)(=O)CCN1/N=C/c1ccc([N+](=O)[O-])o1` (stereo not drawn) [NIFURTIMOX], the IC50 in the test on Trypanosoma cruzi [2] was 7.7 µM; with Trypanosoma cruzi [3] it was 3.4 µM.
`Cc1cc2c(cc1C)[n+]([O-])c1cc(/C=N/NC(=O)NCCc3ccccc3)ccc1[n+]2[O-]` yielded a PGI in the test with Trypanosoma cruzi [1] of 17%.
For the compound `CN(C)CCCNc1cc2c(cc1C#N)[n+]([O-])c1cc(Cl)ccc1[n+]2[O-]`, in the test on Trypanosoma cruzi [1], the PGI was 16%.
Regarding `Cc1cc2c(cc1Sc1ccccc1)[n+]([O-])c1cc(Cl)c(Cl)cc1[n+]2[O-]`, the IC50 in the test with Trypanosoma cruzi [2] came out at 6.5 µM; with Trypanosoma cruzi [3] it was 4.5 µM. The compound also registered a PGI in the test on Trypanosoma cruzi [1] of 93%.
`COc1cc2c(cc1Cl)[n+]([O-])c1cc(N3CCN(c4ccc([N+](=O)[O-])cc4)CC3)c(C#N)cc1[n+]2[O-]` had a PGI in the test with Trypanosoma cruzi [1] of 6%.
Same read-out and setting: as for `COC(=O)N/N=C/c1ccc2c(c1)[n+]([O-])c1cc(C#N)c(N)cc1[n+]2[O-]`, the figure is 19%; as for `Cc1cc2c(cc1C)[n+]([O-])c1cc(N3CCN(c4ccc([N+](=O)[O-])cc4)CC3)c(C#N)cc1[n+]2[O-]`, 0%; as for `N#Cc1cc2c(cc1N)[n+]([O-])c1ccccc1[n+]2[O-]`, 25%.
In the test on Trypanosoma cruzi [1], `Cc1ccc(Nc2cc3c(cc2C#N)[n+]([O-])c2cc(Cl)ccc2[n+]3[O-])cc1` registered a PGI of 19%.
Take `CC(=O)c1cc2c(cc1C)[n+]([O-])c1cc(Cl)ccc1[n+]2[O-]`: in the test on Trypanosoma cruzi [1], the PGI worked out at 51%.
Turning to `Cc1ccc2c(c1)[n+]([O-])c1cc(C#N)c(N)cc1[n+]2[O-]`, in the test on Trypanosoma cruzi [1], the PGI came to 5%.

Values taken from ChEMBL document CHEMBL1146817, “Quinoxaline N,N'-dioxide derivatives and related compounds as growth inhibitors of Trypanosoma cruzi. Structure-activity relationships” (Bioorg Med Chem Lett, 2004).
